Results taken from PMC3388857, “Synthesis and antiviral activities of spacer-linked 1-thioglucuronide analogues of glycyrrhizin” (Beilstein Journal of Organic Chemistry, 2012).

Experiments:
[1] = test system: influenza A H3N2 virus; experiment: Antiviral activity in influenza A virus-infected MDCK cells (prevention of virus-induced cytopathicity, CellTiter-Glo, 48 h); format: cell-based, influenza A virus A/Aichi/2/68 (H3N2); conditions: for IC50: Influenza A virus, H3N2, MDCK, 48 h, MDCK cells infected with influenza A H3N2, MOI 0.05, compound added with virus, read-out: IC50 (half-maximal inhibitory concentration, antiviral activity); for fold more active compared to GL: ratio of antiviral IC50 values versus lead compound GL; for antiviral activity (in words): influenza A H3N2-infected MDCK cells, up to 250 µM
Experimental: For biological testing the compounds were dissolved in DMSO and diluted in cell culture medium to a maximum final DMSO concentration of 1%. For determination of the cytotoxicity of the compounds, MDCK cells were treated with compound concentrations ranging from 3.1 µM to 250 µM for 48 h and then cell viability was determined as a surrogate endpoint for cytotoxicity. […] GL was not toxic at 2500 µM (Table 1). The antiviral activity of the compounds was determined by infecting MDCK cells with influenza A H3N2 virus and treating them with different concentrations of compounds at the same time. […] Compound 16 containing only the N-succinyl substituent is a close analogue to CBX bearing an amide instead of the ester group. […] This was further supported by the data obtained with compound 23 containing a 1-thioethyl-linked glucuronic acid residue at position 3 of 1,2-dehydro-glycyrrhetinic acid.
The influenza A virus (IAV) was obtained from American Tissue Culture Collection (A/Aichi/2/68 (H3N2); VR-547). Virus stocks were prepared by propagation of virus on Mardin-Darby canine kidney (MDCK; ATCC CCL-34) cells and infectious titers of virus stocks were determined by the 50% tissue culture infective dose (TCID50) analysis as described in [5].
MDCK cells were seeded in 96-well plates at 2×10^4 cells/well using DMEM/Ham’s F-12 (1:1) medium containing 10% foetal bovine serum (FBS), 2 mM L-glutamine and 1% antibiotic– antimycotic solution (penicillin, 10.000 units/mL; streptomycin, sulfate 10 mg/mL; Amphotericin B, 25 µg/ml) (all from PAA). Until infection the cells were incubated for 5 h at 37 °C/5.0% CO2 to form a ~80% confluent monolayer on the bottom of the well. Test compounds were dissolved in DMSO and dilution series were prepared in infection medium (DMEM/Ham’s F-12 (1:1) containing 5 µg/mL trypsin (Sigma T4945), and 1% antibiotic–antimycotic solution) resulting in a final plate well DMSO concentration of 1%. The virus stock was generally diluted in infection medium (DMEM/Ham’s F-12 (1:1) containing 5 µg/mL trypsin, 1% DMSO, and 1% antibiotics) to a theoretical multiplicity of infection (MOI) of 0.05. After removal of the culture medium and one washing step with PBS, the virus and compound solution were added together to the cells. In the wells used for cytotoxicity determination (uninfected cells), the virus suspension was replaced by infection medium. Each treatment was conducted in two replicates. After incubation at 37 °C, […]
formation, or other notable abnormalities. Then, cell viability was determined by using CellTiter-Glo luminescent cell viability assay (Promega). The supernatant was removed carefully and 65 µL of the reconstituted reagent was added to each well and incubated for 15 min at room temperature under gentle shaking. Then, 60 µL of the solution was transferred to an opaque plate and luminescence (RLU) was measured by using a Synergy HT plate reader (Biotek). The […]
compounds were titrated on virus-infected MDCK cells and the response (RLU) was used to determine the IC50 value by using a 4-parameter logistic equation (GraphPad Prism) whereby the top and bottom of the curve were defined by the response (RLU) of untreated uninfected cells and untreated infected cells, respectively. The cytotoxicity of the compounds was determined by titration on uninfected MDCK cells, and the response (RLU) was used to determine the CC50 value by using a 4-parameter logistic equation whereby the top of the curve was defined by the response (RLU) of untreated uninfected cells. […]

[2] = in vitro; conditions: dog, CC50 (cytotoxic concentration 50%), compound-treated uninfected MDCK cells, 48 h, cell viability
[3] = test system: MDCK cells; conditions: uninfected MDCK cells, 3.1 µM to 250 µM, 48 h

COC(=O)CCC(=O)N(CCS[C@@H]1O[C@H](C(=O)OC)[C@@H](O)[C@H](O)[C@H]1O)[C@H]1CC[C@@]2(C)C(CC[C@]3(C)C2C(=O)C=C2[C@@H]4C[C@@](C)(C(=O)O)CC[C@]4(C)CC[C@]23C)C1(C)C (some centres unmarked) [Compound 18]
IC50 [1]: 125 ± 15.9 µM | fold more active compared to GL [1]: 8 fold | CC50 [2]: > 250 µM

CC1(C)C(SCCS[C@@H]2O[C@H](C(=O)O)[C@@H](O)[C@H](O)[C@H]2O)C=C[C@@]2(C)C1CC[C@]1(C)C2C(=O)C=C2[C@@H]3C[C@@](C)(C(=O)O)CC[C@]3(C)CC[C@]21C (some centres unmarked) [Compound 23]
IC50 [1]: 54 ± 13 µM | cytotoxicity (in words) [3]: no cytotoxicity at the concentrations tested | CC50 [2]: > 250 µM

CC1(C)C2CC[C@]3(C)C(C(=O)C=C4[C@@H]5C[C@@](C)(C(=O)O)CC[C@]5(C)CC[C@]43C)[C@@]2(C)CC[C@@H]1N(CCS[C@@H]1O[C@H](C(=O)O)[C@@H](O)[C@H](O)[C@H]1O)C(=O)CCC(=O)O (some centres unmarked) [Compound 19]
IC50 [1]: > 250 µM | CC50 [2]: > 250 µM

CC1(C)[C@@H](O)CC[C@]2(C)[C@H]3C(=O)C=C4[C@@H]5C[C@@](C)(C(=O)O)CC[C@]5(C)CC[C@@]4(C)[C@]3(C)CC[C@@H]12 [GA, glycyrrhetinic acid, reference compound]
antiviral activity (in words) [1]: did not show any antiviral activity at nontoxic concentrations | CC50 [2]: 7.4 ± 0.05 µM

CC1(C)C2CC[C@]3(C)C(C(=O)C=C4[C@@H]5C[C@@](C)(C(=O)O)CC[C@]5(C)CC[C@]43C)[C@@]2(C)CC[C@@H]1NC(=O)CCC(=O)O (some centres unmarked) [Compound 16, reference compound]
IC50 [1]: > 250 µM | antiviral activity (in words) [1]: inactive | cytotoxicity (in words) [3]: not toxic | CC50 [2]: > 250 µM

CC(=O)N(CCS[C@@H]1O[C@H](C(=O)O)[C@@H](O)[C@H](O)[C@H]1O)[C@H]1CC[C@@]2(C)C(CC[C@]3(C)C2C(=O)C=C2[C@@H]4C[C@@](C)(C(=O)O)CC[C@]4(C)CC[C@]23C)C1(C)C (some centres unmarked) [Compound 15]
IC50 [1]: 87 ± 7.9 µM | antiviral activity (in words) [1]: IC50 value in the same range as the methyl ester 14 | CC50 [2]: > 250 µM

COC(=O)[C@H]1O[C@@H](SCCN[C@H]2CC[C@@]3(C)C(CC[C@]4(C)C3C(=O)C=C3[C@@H]5C[C@@](C)(C(=O)O)CC[C@]5(C)CC[C@]34C)C2(C)C)[C@H](O)[C@@H](O)[C@@H]1O (some centres unmarked) [Compound 12]
IC50 [1]: 220 ± 41 µM | fold more active compared to GL [1]: 4.7 fold | CC50 [2]: > 250 µM

CC1(C)[C@@H](O[C@H]2O[C@H](C(=O)O)[C@@H](O)[C@H](O)[C@H]2O[C@@H]2O[C@H](C(=O)O)[C@@H](O)[C@H](O)[C@H]2O)CC[C@]2(C)[C@H]3C(=O)C=C4[C@@H]5C[C@@](C)(C(=O)O)CC[C@]5(C)CC[C@@]4(C)[C@]3(C)CC[C@@H]12 [GL, glycyrrhizin]
IC50 [1]: 1030 ± 181 µM | CC50 [2]: > 2500 µM

CC1(C)C2CC[C@]3(C)C(C(=O)C=C4[C@@H]5C[C@@](C)(C(=O)O)CC[C@]5(C)CC[C@]43C)[C@@]2(C)CC[C@@H]1NCCS[C@@H]1O[C@H](C(=O)O)[C@@H](O)[C@H](O)[C@H]1O (some centres unmarked) [Compound 13]
IC50 [1]: > 250 µM | CC50 [2]: > 250 µM

CC1(C)[C@@H](OC(=O)CCC(=O)O)CC[C@]2(C)[C@H]3C(=O)C=C4[C@@H]5C[C@@](C)(C(=O)O)CC[C@]5(C)CC[C@@]4(C)[C@]3(C)CC[C@@H]12 [CBX, carbenoxolone, reference compound]
antiviral activity (in words) [1]: did not show any antiviral activity at nontoxic concentrations | cytotoxicity (in words) [3]: toxic at low concentrations | CC50 [2]: 17.8 ± 2.3 µM

COC(=O)[C@H]1O[C@@H](SCCN(C(C)=O)[C@H]2CC[C@@]3(C)C(CC[C@]4(C)C3C(=O)C=C3[C@@H]5C[C@@](C)(C(=O)O)CC[C@]5(C)CC[C@]34C)C2(C)C)[C@H](O)[C@@H](O)[C@@H]1O (some centres unmarked) [Compound 14]
IC50 [1]: 72.1 µM | fold more active compared to GL [1]: approximately 14 fold
